Assay results as given in patent US20260306641A1, “HELICASE DEGRADERS” (priority 2023, published 2026).
pIC50: −log10 of the molar value.

How the values were obtained:
HSP90 = details: cited from earlier work
[1] = test system: solid tumor cell lines (NCI-60 set); details: cited from earlier work
HaCaT cells = experiment: CellTiter-Glo viability, HaCaT cells; format: cell-based, human; details: 72 hr
Experimental: Human keratinocytes (HaCaT; RRID:CVCL_0038), 143B cells (osteosarcoma; RRID:CVCL_2270), and HEK-293T (RRID:CVCL_0063) cells were maintained in Dulbecco's Modified Eagle's Medium (DMEM) supplemented with 10% fetal bovine serum (FBS; Peak Serum, PS-FB-2). Human Psn1 (pancreatic ductal adenocarcinoma; RRID:CVCL_1644) and H460 (non-small cell lung carcinoma; RRID:CVCL_0459) cells were cultured in RPMI-1640 medium supplemented with 10% FBS. HaCaT cells were synchronized in Go using serum starvation for 48 hr and released into the cell cycle by addition of DMEM with 10% FBS (51). Novobiocin (cat #46531) and Courmermycin-A1 (cat #C9270) were obtained from Sigma. Etoposide (cat #S1225) and AT7519 (cat #S1524) were obtained from SelleckChem. All stock solutions of inhibitors were stored at −20° C. as 10 mM suspensions in DMSO.
Cell viability determinations were performed using CellTiter-Glo Assays (Promega; cat #G7572). Cells were seeded in 96-well plates at a density of ~3×10^3 cells/well and treated with drugs for 72 hr, after which the cells were processed for viability using CellTiter-Glo reagent according to the instructions of the manufacturer. Each drug concentration test was performed using four replicates, and results averaged and plotted on graphs, +/−1 s.d.

[2] = test system: T1, human CMG helicase (hCMG); experiment: hCMG ATPase activity, FP ADP^2 Transcreener assay; format: biochemical; details: primary FP ATPase assay
T1 construct: made in house; host or cells: High Five insect cells, baculovirus (11 viruses co-infected)
Experimental: The fluorescent-polarization (FP) ADP-sensing assays were performed using the Transcreener® ADP^2 FP assay kit (cat #3010-1K, Bellbrook Labs). For hCMG inhibitor screening, assays were performed at 37° C. for 1 hr in 10 μl reactions in a 384-well plate (cat. #4514, Corning) using 2 μL of hCMG (~15 fmol), 25 mM Hepes-NaOH (pH 7.5), 10 mM NaCl, 0.5 mM ATP, 10 mM magnesium acetate, 1 mM DTT, 0.1 mg/ml BSA, and DNA fork substrates. […] Selected inhibitors or samples from a chemical library were added into the reactions when conducting the screening or testing inhibitor effectiveness. The NCI Diversity Set VI chemical library was obtained from the National Cancer Institute (Bethesda, MD).
The window of sensitivity for the ADP-sensing assays is determined by setting up two 10 μL control samples without any added hCMG helicase: a Low-FP mixture (4 nM ADP Alexa Fluor-633 Tracer alone) and a High-FP mixture (4 nM ADP Alexa Fluor-633 Tracer plus patented anti-ADP^2 Antibody). The amount of ADP^2 Antibody used had to be adjusted to account for the use of 500 μM ATP in our hCMG assays, versus 10 μM ATP in enzyme reactions typically assessed with standard kits prepared by BellBrook Labs. […] This was done according to the manufacturer by performing a titration with increasing ADP^2 Antibody, fixed 4 nM ADP Alexa Fluor-633 Tracer, and 500 μM ATP to determine the ~EC80-85 for millipol (mP) changes, which determined the optimal ADP^2 Antibody concentration to use as 0.64 mg/ml (FIG. 9A). Samples are read with a Perkin Elmer Envision II plate reader with optimized Cy5 (far-red) FP-compatible mirror and cubes (cat #2100-8390, Perkin Elmer). The Low-FP sample is the least polarized and gives a low mP reading, while the High-FP sample is the most polarized and gives the highest mP reading. The difference between the Low-FP and High-FP values defines the FP assay window, which is normally in a range of 150-200 mP under ideal conditions for screening purposes. The hCMG helicase hydrolyzes ATP to ADP and decreases the mP reading within this window, with an ideal change (ΔmP) in the FP window of at least 50% to be in a readable range for inhibitor screening (as per manufacturer). Potential hCMG chemical inhibitors reverse this effect and cause the mP readings to increase.
We performed a titration with increasing and decreasing concentrations of ADP and ATP, respectively, to assess the sensitivity of the FP assay in detecting ADP production (FIG. 9B). Consistent with the stated manufacturer predictions, the assay can reliably detect 1-3% changes in ADP production (i.e., 5-15 μM ADP production) in starting concentrations of ATP of 500 μM, with a Z′ efficiency between 0.6-0.8 (determined following manufacturer protocols).
Once the hCMG enzyme reactions are complete, 10 μL of 1× Stop Solution and Detection Buffer (buffer from BellBrook Labs; containing 4 nM ADP Alexa Fluor-633 Tracer plus ADP^2 Antibody) are added to each reaction, and to the High-FP control. The Low-FP control receives 10 μL of 1× Stop Solution and Detection Buffer containing only 4 nM ADP Alexa Fluor-633 Tracer (no Antibody). Samples are incubated at 25° C. for 1 hr, then read in the plate reader. […] Plate readings from these tests of potential positive hits should be similar to that seen with the Low-FP control, or such hits may instead be false-positives.

[3] = test system: MCM/CMG and replisome proteins in HaCaT cells; experiment: Immunoblots of chromatin-bound or total proteins, synchronized HaCaT cells; format: cell-based, human
[4] = treated at 18 hr (early S-phase)

T1 sequence (P49736 whole entry): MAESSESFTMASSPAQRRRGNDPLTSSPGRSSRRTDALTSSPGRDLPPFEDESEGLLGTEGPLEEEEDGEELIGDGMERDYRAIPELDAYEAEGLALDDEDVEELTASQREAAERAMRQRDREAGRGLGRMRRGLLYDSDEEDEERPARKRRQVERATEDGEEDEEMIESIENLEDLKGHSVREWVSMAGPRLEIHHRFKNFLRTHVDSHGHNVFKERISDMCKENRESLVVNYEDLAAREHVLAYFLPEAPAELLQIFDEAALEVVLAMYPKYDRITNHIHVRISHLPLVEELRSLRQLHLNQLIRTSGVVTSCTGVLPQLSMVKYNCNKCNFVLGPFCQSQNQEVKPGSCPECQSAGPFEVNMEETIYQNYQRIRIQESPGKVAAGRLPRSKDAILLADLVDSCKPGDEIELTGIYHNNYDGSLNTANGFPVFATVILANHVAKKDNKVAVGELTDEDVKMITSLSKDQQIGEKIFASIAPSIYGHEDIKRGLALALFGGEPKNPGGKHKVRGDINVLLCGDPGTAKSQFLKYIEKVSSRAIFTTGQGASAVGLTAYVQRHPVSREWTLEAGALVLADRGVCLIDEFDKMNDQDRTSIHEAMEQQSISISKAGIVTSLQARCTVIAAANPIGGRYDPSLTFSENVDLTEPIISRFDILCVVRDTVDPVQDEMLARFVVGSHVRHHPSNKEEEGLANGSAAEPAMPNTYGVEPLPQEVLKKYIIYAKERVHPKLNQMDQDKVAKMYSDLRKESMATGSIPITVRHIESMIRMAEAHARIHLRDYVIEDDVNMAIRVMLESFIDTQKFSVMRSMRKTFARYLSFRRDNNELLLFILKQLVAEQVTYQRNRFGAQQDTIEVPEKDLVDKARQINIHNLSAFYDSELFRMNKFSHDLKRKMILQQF
T1 sequence (P25205 whole entry, further chain): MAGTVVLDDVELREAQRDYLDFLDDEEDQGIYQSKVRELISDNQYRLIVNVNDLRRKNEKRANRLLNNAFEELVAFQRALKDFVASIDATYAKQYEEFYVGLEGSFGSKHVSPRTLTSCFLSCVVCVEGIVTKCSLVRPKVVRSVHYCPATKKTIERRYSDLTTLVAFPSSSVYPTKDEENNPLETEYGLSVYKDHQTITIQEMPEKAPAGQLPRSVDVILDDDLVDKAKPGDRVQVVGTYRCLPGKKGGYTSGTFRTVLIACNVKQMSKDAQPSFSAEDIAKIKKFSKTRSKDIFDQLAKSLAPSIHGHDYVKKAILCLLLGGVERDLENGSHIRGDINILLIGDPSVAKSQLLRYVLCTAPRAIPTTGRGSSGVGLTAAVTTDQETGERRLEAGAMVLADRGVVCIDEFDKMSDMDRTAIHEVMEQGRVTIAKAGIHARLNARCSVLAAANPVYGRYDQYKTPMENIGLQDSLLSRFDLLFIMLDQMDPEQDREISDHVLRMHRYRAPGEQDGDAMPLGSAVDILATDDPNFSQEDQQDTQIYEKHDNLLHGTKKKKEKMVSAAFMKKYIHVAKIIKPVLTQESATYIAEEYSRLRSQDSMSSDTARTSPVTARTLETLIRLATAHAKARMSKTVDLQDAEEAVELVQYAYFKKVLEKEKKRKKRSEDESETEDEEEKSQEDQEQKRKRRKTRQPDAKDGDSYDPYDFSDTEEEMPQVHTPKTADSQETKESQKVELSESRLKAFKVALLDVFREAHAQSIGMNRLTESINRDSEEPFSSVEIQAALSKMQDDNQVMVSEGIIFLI
T1 sequence (P33991 whole entry, further chain): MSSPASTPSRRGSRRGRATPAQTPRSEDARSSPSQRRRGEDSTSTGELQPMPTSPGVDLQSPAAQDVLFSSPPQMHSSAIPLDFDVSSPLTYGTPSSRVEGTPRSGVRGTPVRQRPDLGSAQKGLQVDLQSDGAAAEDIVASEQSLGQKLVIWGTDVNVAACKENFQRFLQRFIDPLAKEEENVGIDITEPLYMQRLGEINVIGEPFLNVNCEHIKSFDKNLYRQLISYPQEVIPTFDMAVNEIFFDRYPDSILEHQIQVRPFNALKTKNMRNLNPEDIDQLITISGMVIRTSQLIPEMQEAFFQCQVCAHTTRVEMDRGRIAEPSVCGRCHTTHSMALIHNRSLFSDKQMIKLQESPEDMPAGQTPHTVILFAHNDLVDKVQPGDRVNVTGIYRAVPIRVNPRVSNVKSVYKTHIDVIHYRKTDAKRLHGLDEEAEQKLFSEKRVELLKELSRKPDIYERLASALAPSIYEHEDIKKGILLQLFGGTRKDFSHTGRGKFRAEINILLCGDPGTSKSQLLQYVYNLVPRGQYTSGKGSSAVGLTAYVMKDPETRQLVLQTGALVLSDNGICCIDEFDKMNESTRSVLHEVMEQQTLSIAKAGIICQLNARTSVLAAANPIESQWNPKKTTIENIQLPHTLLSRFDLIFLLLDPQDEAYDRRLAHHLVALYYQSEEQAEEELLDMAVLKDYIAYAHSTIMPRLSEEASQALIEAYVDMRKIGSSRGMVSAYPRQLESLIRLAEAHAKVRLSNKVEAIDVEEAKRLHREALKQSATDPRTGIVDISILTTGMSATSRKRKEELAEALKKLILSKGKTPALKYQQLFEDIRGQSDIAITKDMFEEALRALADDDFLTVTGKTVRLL
T1 sequence (P33992 whole entry, further chain): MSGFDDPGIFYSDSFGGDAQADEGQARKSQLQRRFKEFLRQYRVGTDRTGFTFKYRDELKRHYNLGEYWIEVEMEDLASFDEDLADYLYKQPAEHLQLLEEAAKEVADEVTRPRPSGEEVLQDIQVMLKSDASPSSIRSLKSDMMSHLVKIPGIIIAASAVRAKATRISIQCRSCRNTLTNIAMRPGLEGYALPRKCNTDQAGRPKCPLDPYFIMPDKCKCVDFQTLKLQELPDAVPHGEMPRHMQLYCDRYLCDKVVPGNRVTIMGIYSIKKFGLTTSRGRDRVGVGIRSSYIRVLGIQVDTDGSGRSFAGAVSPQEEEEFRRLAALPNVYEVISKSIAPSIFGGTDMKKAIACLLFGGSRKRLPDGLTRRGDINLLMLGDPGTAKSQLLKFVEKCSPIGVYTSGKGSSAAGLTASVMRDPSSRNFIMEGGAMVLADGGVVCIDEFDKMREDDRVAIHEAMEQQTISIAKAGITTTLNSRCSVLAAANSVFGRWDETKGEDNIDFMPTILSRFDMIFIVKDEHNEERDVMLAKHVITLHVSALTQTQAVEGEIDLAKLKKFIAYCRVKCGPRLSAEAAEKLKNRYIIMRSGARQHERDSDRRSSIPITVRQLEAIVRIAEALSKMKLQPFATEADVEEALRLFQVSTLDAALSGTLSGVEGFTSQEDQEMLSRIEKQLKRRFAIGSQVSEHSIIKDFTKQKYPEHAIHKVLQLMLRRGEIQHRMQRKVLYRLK
T1 sequence (Q14566 whole entry, further chain): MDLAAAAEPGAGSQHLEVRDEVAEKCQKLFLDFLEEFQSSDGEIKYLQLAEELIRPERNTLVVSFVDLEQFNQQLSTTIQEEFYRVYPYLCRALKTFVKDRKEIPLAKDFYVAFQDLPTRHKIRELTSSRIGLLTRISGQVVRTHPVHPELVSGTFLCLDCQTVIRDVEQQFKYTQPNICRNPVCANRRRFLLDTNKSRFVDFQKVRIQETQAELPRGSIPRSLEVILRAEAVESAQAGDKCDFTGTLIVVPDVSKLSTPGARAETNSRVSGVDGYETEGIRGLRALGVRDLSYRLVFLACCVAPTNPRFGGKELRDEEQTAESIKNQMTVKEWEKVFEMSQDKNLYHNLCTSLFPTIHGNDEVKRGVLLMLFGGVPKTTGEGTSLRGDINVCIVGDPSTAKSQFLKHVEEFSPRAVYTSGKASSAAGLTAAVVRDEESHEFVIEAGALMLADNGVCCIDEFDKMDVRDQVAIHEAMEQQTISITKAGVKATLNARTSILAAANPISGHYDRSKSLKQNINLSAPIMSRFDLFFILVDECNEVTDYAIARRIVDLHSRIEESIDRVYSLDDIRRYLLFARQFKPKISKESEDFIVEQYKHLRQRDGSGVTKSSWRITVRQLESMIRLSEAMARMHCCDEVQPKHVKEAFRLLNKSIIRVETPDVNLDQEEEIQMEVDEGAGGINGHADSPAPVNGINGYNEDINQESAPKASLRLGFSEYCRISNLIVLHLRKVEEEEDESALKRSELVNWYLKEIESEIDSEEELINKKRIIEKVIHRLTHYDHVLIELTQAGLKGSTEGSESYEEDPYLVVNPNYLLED
T1 sequence (P33993 whole entry, further chain): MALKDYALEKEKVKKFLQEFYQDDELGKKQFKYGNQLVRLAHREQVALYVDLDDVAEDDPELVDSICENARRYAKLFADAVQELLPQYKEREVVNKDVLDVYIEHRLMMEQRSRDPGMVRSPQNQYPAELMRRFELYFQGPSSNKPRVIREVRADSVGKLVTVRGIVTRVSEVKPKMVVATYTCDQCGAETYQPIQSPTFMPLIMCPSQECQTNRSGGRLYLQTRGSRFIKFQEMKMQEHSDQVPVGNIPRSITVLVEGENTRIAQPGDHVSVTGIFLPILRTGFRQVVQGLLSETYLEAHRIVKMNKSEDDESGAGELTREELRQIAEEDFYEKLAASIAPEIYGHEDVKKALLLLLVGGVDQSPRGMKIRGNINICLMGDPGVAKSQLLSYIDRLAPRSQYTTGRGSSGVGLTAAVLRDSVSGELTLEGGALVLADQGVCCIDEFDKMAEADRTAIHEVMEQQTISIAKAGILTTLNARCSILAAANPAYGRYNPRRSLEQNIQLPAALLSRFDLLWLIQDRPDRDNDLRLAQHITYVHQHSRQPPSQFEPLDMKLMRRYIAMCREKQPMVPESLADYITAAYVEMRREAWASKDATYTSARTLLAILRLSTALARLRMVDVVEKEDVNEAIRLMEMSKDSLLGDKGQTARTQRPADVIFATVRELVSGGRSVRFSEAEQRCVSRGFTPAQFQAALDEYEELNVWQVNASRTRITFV

## CO[C@@H]1[C@@H](OC(N)=O)[C@@H](O)[C@H](Oc2ccc3c(O)c(NC(=O)c4ccc(O)c(CC=C(C)C)c4)c(=O)oc3c2C)OC1(C)C [novobiocin]
HSP90
  doses required to inhibit HSP90: 700 to 1000 µM
[1]
  growth suppression of solid tumor cell lines: largely insensitive
HaCaT cells
  effect on HaCaT viability: little effect on viability
[2]
  inhibition of hCMG ATP hydrolysis: very little inhibitory effect on the hCMG
[3]; treated at 6 hrs (middle G1)
  increase in MCM loading at 12 hrs: not by novobiocin

## CO[C@@H]1[C@@H](OC(=O)c2ccc(C)[nH]2)[C@@H](O)[C@H](Oc2ccc3c(O)c(NC(=O)c4c[nH]c(C(=O)Nc5c(O)c6ccc(O[C@@H]7OC(C)(C)[C@H](OC)[C@@H](OC(=O)c8ccc(C)[nH]8)[C@H]7O)c(C)c6oc5=O)c4C)c(=O)oc3c2C)OC1(C)C [CA1]
HSP90
  doses required to inhibit HSP90: 700 to 1000 µM
[1]
  growth suppression of solid tumor cell lines: sensitive to similar low micromolar concentrations
HaCaT cells; Homo sapiens, HaCaT
  pIC50: ~4.82
[2]
  inhibition of hCMG ATP hydrolysis: potent inhibitor of ATP hydrolysis by the hCMG
[3]; S-phase cells
  Ctf4 and Mcm10 on chromatin: reduced on chromatin
  DNA polymerases-a, -d and -e on chromatin: caused a loss of DNA polymerases-a, -d, and -e from chromatin
  RPA on chromatin: reduced on chromatin
[3]; early-G1 treatment
  GINS and Cdc45 loading onto chromatin: blocked
  Orc2 chromatin binding: not affected
[3]; early-G1 treatment, assessed 18 hrs
  MCM loading onto chromatin: significantly inhibited
[3]; late-G1 treatment (12 hrs)
  Cdc45 recruitment: not appreciably affected
  Cdt1 dynamics: does not affect Cdt1 dynamics
  GINS recruitment to DNA-loaded MCM hexamers: inhibits GINS recruitment to DNA-loaded MCM hexamers
  remainder of MCM loading: only a small effect, if any
[3]; middle G1 exposure
  Cdc6 chromatin association, polyclonal antibody: not affected in chromatin association
  Cdc6 form on chromatin, monoclonal antibody: sensitive to CA1
  Orc2 and Orc4 affinity for chromatin: not affected
[3]; treated at 6 hrs (middle G1)
  Cdt1 loading on chromatin: blocks this Cdt1 loading
  MCMs already loaded on chromatin: does not affect MCMs already loaded
  increase in MCM loading at 12 hrs: inhibited by CA1
  total Cdt1: promotes loss of total Cdt1
[3]; [4]
  GINS and Cdc45 chromatin association: notably suppressed
  total protein levels of Psf3 and Cdc45: slightly affected
